Test results: patent US12365651B2, “Use of pirfenidone and derivatives for modulation of B lymphocyte activity and organ protection from acute tissue damage” (Washington University, priority 2017, dated 2025)
Several values for one entry are separate records, joined by “and”; a condition that tells them apart may be missing. Equal entries are not always repeated.

Key:
[1] = Plasma pharmacokinetics after IV or PO administration; assay type: in vivo; conditions: SD Rat, 96 mg/kg
[2] = as above; assay type: in vivo, SD Rat
Description: Pirfenidone and Pegyonde-6 were administered at equimolar concentrations to rats IV or per os (PO) and serum concentrations measured at different time points to measure pharmacokinetic parameters. The drugs were solubilized in 5% Alcohol+20% PEG 300 in saline.

[3] = test system: Peritoneal derived inflammatory cells; assay: In vitro immunomodulatory effect of tested PEG compounds (CD86 on CD19+ cells, LPS); assay type: cell-based, mouse; conditions: potency in molarity; toxicity by visual inspection and DAPI staining (FIG. 11D)
Description: Peritoneal derived inflammatory cells were collected on day for post intraperitoneal injection of Thyoglicollate. Cells were cultured for 24 h in baseline condition (control), in the presence of LPS 100 ng/ml (LPS) or in the presence of LPS 100 ng/ml and various concentrations of different forms of Pegylated Pirfenidone (named C2 and C3 in FIG. 11A and C4 to C6 in FIG. 11B)). After the 24 h in culture cells were collected and analyzed via flow cytometry to assess the expression of CD86 on CD19+ cells (B lymphocytes). […] FIG. 11C reports the molecular weights of the tested forms of PEGylated Pirfenidone and the molecular weight (MW) ration between the tested compound and Pirfenidone).

[4] = SD Rat, IV 96 mg/kg, individual rats 4-6, 96 mg/kg
[5] = SD Rat, PO 96 mg/kg, individual rats 10-12, 96 mg/kg

Plasma concentrations of PEG-Pirfenidone ([1]; PO 96 mg/kg, 2 h, individual rats 10-12): 219 ng/mL and 885 ng/mL and 217 ng/mL | AUC0-t, Mean ([2]; SD Rat, IV 96 mg/kg): 34197 ng·h/mL | AUC0-∞, Mean ([2]; SD Rat, IV 96 mg/kg): 34229 ng·h/mL | AUMC0-t, Mean ([2]; SD Rat, IV 96 mg/kg): 18176 h*h*ng/mL | AUMC0—∞, Mean ([2]; SD Rat, IV 96 mg/kg): 18540 h*h*ng/mL | CL(/F), Mean ([2]; SD Rat, IV 96 mg/kg): 48.72 mL/min/kg | Cmax, Mean ([2]; SD Rat, IV 96 mg/kg): 65733 ng/mL | MRTINF, Mean ([2]; SD Rat, IV 96 mg/kg): 33.8 min | T1/2, Mean ([2]; SD Rat, IV 96 mg/kg): 79.8 min | Tmax, Mean ([2]; SD Rat, IV 96 mg/kg): 4.98 min | Vss (/F), Mean ([2]; SD Rat, IV 96 mg/kg): 1.7 L/kg | Plasma concentrations of PEG-Pirfenidone, Mean ([2]; SD Rat, IV 96 mg/kg, 0.083 h): 65733 ng/mL | Plasma concentrations of PEG-Pirfenidone, Mean ([2]; SD Rat, IV 96 mg/kg, 0.25 h): 41336 ng/mL | Plasma concentrations of PEG-Pirfenidone, Mean ([2]; SD Rat, IV 96 mg/kg, 0.5 h): 17149 ng/mL | Plasma concentrations of PEG-Pirfenidone, Mean ([2]; SD Rat, IV 96 mg/kg, 1 h): 6090 ng/mL | Plasma concentrations of PEG-Pirfenidone ([2]; SD Rat, IV 96 mg/kg, 1 h, individual rats 4-6, 96 mg/kg): 5974 ng/mL and 6543 ng/mL and 5755 ng/mL | Plasma concentrations of PEG-Pirfenidone, Mean ([2]; SD Rat, IV 96 mg/kg, 2 h): 1533 ng/mL | Plasma concentrations of PEG-Pirfenidone ([2]; SD Rat, IV 96 mg/kg, 2 h, individual rats 4-6, 96 mg/kg): 1786 ng/mL and 2091 ng/mL and 721 ng/mL | Plasma concentrations of PEG-Pirfenidone, Mean ([2]; SD Rat, IV 96 mg/kg, 4 h): 183 ng/mL | Plasma concentrations of PEG-Pirfenidone ([2]; SD Rat, IV 96 mg/kg, 4 h, individual rats 4-6, 96 mg/kg): 216 ng/mL and 156 ng/mL and 178 ng/mL | Plasma concentrations of PEG-Pirfenidone, Mean ([2]; SD Rat, IV 96 mg/kg, 8 h): 20.3 ng/mL | Plasma concentrations of PEG-Pirfenidone ([2]; SD Rat, IV 96 mg/kg, 8 h, individual rats 4-6, 96 mg/kg): 12.9 ng/mL and 11.5 ng/mL and 36.3 ng/mL | Plasma concentrations of PEG-Pirfenidone, Mean ([2]; SD Rat, IV 96 mg/kg, 24 h): 2.97 ng/mL | Tmax ([2]; SD Rat, IV 96 mg/kg, individual rats 4-6): 4.98 min | MRTINF [2, 4]: 39 min and 37.6 min and 24.7 min | T1/2 [2, 4]: 48.2 min and 106 min and 85.8 min | Vss (/F) [2, 4]: 2.366 L/kg and 1.823 L/kg and 0.912 L/kg | AUC0-t, Mean ([2]; SD Rat, PO 96 mg/kg): 16811 ng·h/mL | AUC0-∞, Mean ([2]; SD Rat, PO 96 mg/kg): 16838 ng·h/mL | AUMC0-t, Mean ([2]; SD Rat, PO 96 mg/kg): 10264 h*h*ng/mL | AUMC0—∞, Mean ([2]; SD Rat, PO 96 mg/kg): 10527 h*h*ng/mL | Cmax, Mean ([2]; SD Rat, PO 96 mg/kg): 23584 ng/mL | MRTINF, Mean ([2]; SD Rat, PO 96 mg/kg): 37.6 min | T1/2, Mean ([2]; SD Rat, PO 96 mg/kg): 70.8 min | Tmax, Mean ([2]; SD Rat, PO 96 mg/kg): 15 min | F % ([2]; SD Rat, PO 96 mg/kg vs IV 96 mg/kg): 49.16% | Plasma concentrations of PEG-Pirfenidone, Mean ([2]; SD Rat, PO 96 mg/kg, 0.25 h): 23584 ng/mL | Plasma concentrations of PEG-Pirfenidone, Mean ([2]; SD Rat, PO 96 mg/kg, 0.5 h): 19224 ng/mL | Plasma concentrations of PEG-Pirfenidone, Mean ([2]; SD Rat, PO 96 mg/kg, 1 h): 3748 ng/mL | Plasma concentrations of PEG-Pirfenidone ([2]; SD Rat, PO 96 mg/kg, 1 h, individual rats 10-12, 96 mg/kg): 1157 ng/mL and 7033 ng/mL and 3053 ng/mL | Plasma concentrations of PEG-Pirfenidone, Mean ([2]; SD Rat, PO 96 mg/kg, 2 h): 440 ng/mL | Plasma concentrations of PEG-Pirfenidone, Mean ([2]; SD Rat, PO 96 mg/kg, 4 h): 69 ng/mL | Plasma concentrations of PEG-Pirfenidone ([2]; SD Rat, PO 96 mg/kg, 4 h, individual rats 10-12, 96 mg/kg): 28.4 ng/mL and 129 ng/mL and 48.8 ng/mL | Plasma concentrations of PEG-Pirfenidone, Mean ([2]; SD Rat, PO 96 mg/kg, 8 h): 14 ng/mL | Plasma concentrations of PEG-Pirfenidone ([2]; SD Rat, PO 96 mg/kg, 8 h, individual rats 10-12, 96 mg/kg): 3.09 ng/mL and 33.4 ng/mL and 6.16 ng/mL | Tmax ([2]; SD Rat, PO 96 mg/kg, individual rats 10-12): 15 min | MRTINF [2, 5]: 39.8 min and 38.9 min and 33.9 min | T1/2 [2, 5]: 60.6 min and 80.4 min and 71.4 min | half-life compared with Pirfenidone ([2]; rats, equimolar, after both IV and PO administration): longer half-life than Pirfenidone
Structure (SMILES): COCCOCCOCCOCCOCCOCc1ccc(-n2cc(C)ccc2=O)cc1 [PEG-Pirfenidone]
Plasma concentrations of PEG-Pirfenidone ([1]; IV 96 mg/kg, 0.083 h, individual rats 4-6): 44227 ng/mL and 56484 ng/mL and 96487 ng/mL | Plasma concentrations of PEG-Pirfenidone ([1]; IV 96 mg/kg, 0.5 h, individual rats 4-6): 13073 ng/mL and 18584 ng/mL and 19790 ng/mL | Plasma concentrations of PEG-Pirfenidone ([2]; SD Rat, IV 96 mg/kg, 0.25 h, individual rats 4-6, 96 mg/kg): 27605 ng/mL and 35059 ng/mL and 61343 ng/mL | Plasma concentrations of PEG-Pirfenidone ([2]; SD Rat, IV 96 mg/kg, 24 h, individual rats 4-6, 96 mg/kg): BLOQ (Below lower limit of quantification (1 ng/mL)) (2×) and 2.97 ng/ml | AUC0-t [2, 4]: 26338 ng·h/mL and 32960 ng·h/mL and 43292 ng·h/mL | AUC0-∞ [2, 4]: 26353 ng·h/mL and 32968 ng·h/mL and 43367 ng·h/mL | AUMC0-t [2, 4]: 16980 h*h*ng/mL and 20439 h*h*ng/mL and 17108 h*h*ng/mL | AUMC0—∞ [2, 4]: 17118 h*h*ng/mL and 20640 h*h*ng/mL and 17863 h*h*ng/mL | CL(/F) [2, 4]: 60.72 mL/min/kg and 48.53 mL/min/kg and 36.9 mL/min/kg | Cmax [2, 4]: 44227 ng/mL and 56484 ng/mL and 96487 ng/mL | Plasma concentrations of PEG-Pirfenidone ([2]; SD Rat, PO 96 mg/kg, 0.25 h, individual rats 10-12, 96 mg/kg): 8298 ng/mL and 40817 ng/mL and 21638 ng/mL | Plasma concentrations of PEG-Pirfenidone ([2]; SD Rat, PO 96 mg/kg, 0.5 h, individual rats 10-12, 96 mg/kg): 3977 ng/mL and 35217 ng/mL and 18477 ng/mL | Plasma concentrations of PEG-Pirfenidone ([2]; SD Rat, PO 96 mg/kg, 24 h, individual rats 10-12): BLOQ (Below lower limit of quantification (1 ng/mL)) | AUC0-t [2, 5]: 4853 ng·h/mL and 30468 ng·h/mL and 15112 ng·h/mL | AUC0-∞ [2, 5]: 4858 ng·h/mL and 30533 ng·h/mL and 15123 ng·h/mL | AUMC0-t [2, 5]: 3178 h*h*ng/mL and 19172 h*h*ng/mL and 8441 h*h*ng/mL | AUMC0—∞ [2, 5]: 3221 h*h*ng/mL and 19815 h*h*ng/mL and 8544 h*h*ng/mL | Cmax [2, 5]: 8298 ng/mL and 40817 ng/mL and 21638 ng/mL | relative potency to Pirfenidone and in vitro toxicity [3]: superior to the other tested variants
